What was measured:
Assay in all cases: microbe, parasite or virus in culture
Parameters in all cases: Broth microdilution MIC in cation-adjusted MHB-Ca2+, growth inhibition per EUCAST reading
[1] = test system: T1, Staphylococcus aureus PB0112; settings: PB0112, 16 h
T1 construct: PB0112
Protocol: (§1) MICs were measured in cation-adjusted Mueller-Hinton broth (MHB) supplemented with 50 μg/mL CaCl2 (MHB-Ca^2+) via broth microdilution in 96-well plates with an inoculum of ∼5 × 10^5 CFU per mL. Antibiotic test concentrations ranged from 0.0625 μg/mL to 32 μg/mL by 2-fold dilutions. Plates were incubated at 37°C for 16 h without shaking, and results were interpreted in accordance with European Committee on Antimicrobial Susceptibility Testing reading guidelines ([72]). S. aureus ATCC 29213 was used as a quality-control strain. TCA cycle defects have been shown previously to cause antibiotic tolerance in laboratory strains of methicillin-sensitive S. aureus (MSSA) ([13], [16]). […] To test this hypothesis, we complemented three of the clinical isolates harboring loss-of-function citZ mutations with either wild-type citZ (pOS1-citZ) or empty vector (pOS1) and then measured bacterial survival through time after exposure to ceftaroline, daptomycin, vancomycin, or the combination of daptomycin plus ceftaroline (Fig. 3). These antibiotics were chosen for their clinical relevance in the treatment of severe MRSA infection.

[2] = test system: T2, Staphylococcus aureus PB1509; settings: PB1509, 16 h
T2 construct: PB1509
Protocol: as §1

[3] = test system: T3, Staphylococcus aureus PB0803; settings: PB0803, 16 h
T3 construct: PB0803
Protocol: as §1

[4] = test system: T4, Staphylococcus aureus PB0203; settings: PB0203, 16 h
T4 construct: PB0203
Protocol: as §1

[5] = test system: T5, Staphylococcus aureus PB0609; settings: PB0609, 16 h
T5 construct: PB0609
Protocol: as §1

[6] = test system: T6, Staphylococcus aureus PB0605; settings: PB0605, 16 h
T6 construct: PB0605
Protocol: as §1

[7] = test system: T7, Staphylococcus aureus PB0905; settings: PB0905, 16 h
T7 construct: PB0905
Protocol: as §1

[8] = test system: T8, Staphylococcus aureus PB1408; settings: PB1408, 16 h
T8 construct: PB1408
Protocol: as §1

[9] = test system: T9, Staphylococcus aureus PB0412; settings: PB0412, 16 h
T9 construct: PB0412
Protocol: as §1

[10] = test system: T10, Staphylococcus aureus PB0601; settings: PB0601, 16 h
T10 construct: PB0601
Protocol: as §1

[11] = test system: T11, Staphylococcus aureus PB1505; settings: PB1505, 16 h
T11 construct: PB1505
Protocol: as §1

[12] = test system: T12, Staphylococcus aureus PB0704; settings: PB0704, 16 h
T12 construct: PB0704
Protocol: as §1

[13] = test system: T13, Staphylococcus aureus PB0805; settings: PB0805, 16 h
T13 construct: PB0805
Protocol: as §1

[14] = test system: T14, Staphylococcus aureus PB0113; settings: PB0113, 16 h
T14 construct: PB0113
Protocol: as §1

[15] = test system: T15, Staphylococcus aureus PB0115; settings: PB0115, 16 h
T15 construct: PB0115
Protocol: as §1

[16] = test system: T16, Staphylococcus aureus PB0801; settings: PB0801, 16 h
T16 construct: PB0801
Protocol: as §1

[17] = test system: T17, Staphylococcus aureus PB0903; settings: PB0903, 16 h
T17 construct: PB0903
Protocol: as §1

[18] = test system: T18, Staphylococcus aureus PB1103; settings: PB1103, 16 h
T18 construct: PB1103
Protocol: as §1

Q: What does the source list for `CN[C@H](CC(C)C)C(=O)N[C@H]1C(=O)N[C@@H](CC(N)=O)C(=O)N[C@H]2C(=O)N[C@H]3C(=O)N[C@H](C(=O)N[C@H](C(=O)O)c4cc(O)cc(O)c4-c4cc3ccc4O)[C@H](O)c3ccc(c(Cl)c3)Oc3cc2cc(c3O[C@@H]2O[C@H](CO)[C@@H](O)[C@H](O)[C@H]2O[C@H]2C[C@](C)(N)[C@H](O)[C@H](C)O2)Oc2ccc(cc2Cl)[C@H]1O` [Vancomycin]?
A: MIC ([1]; replicate 1): 2 µg/mL; MIC ([1]; replicate 2): 2 µg/mL; MIC ([2]; replicate 1): 2 µg/mL; MIC ([2]; replicate 2): 2 µg/mL; MIC ([3]; replicate 1): 2 µg/mL; MIC ([3]; replicate 2): 2 µg/mL; MIC ([4]; replicate 1): 2 µg/mL; MIC ([4]; replicate 2): 2 µg/mL; MIC ([5]; replicate 1): 2 µg/mL; MIC ([5]; replicate 2): 4 µg/mL; MIC ([6]; replicate 1): 2 µg/mL; MIC ([6]; replicate 2): 2 µg/mL; MIC ([7]; replicate 1): 2 µg/mL; MIC ([7]; replicate 2): 2 µg/mL; MIC ([8]; replicate 1): 4 µg/mL; MIC ([8]; replicate 2): 4 µg/mL; MIC ([9]; replicate 1): 2 µg/mL; MIC ([9]; replicate 2): 2 µg/mL; MIC ([10]; replicate 1): 2 µg/mL; MIC ([10]; replicate 2): 2 µg/mL; MIC ([11]; replicate 1): 2 µg/mL; MIC ([11]; replicate 2): 2 µg/mL; MIC ([12]; replicate 1): 2 µg/mL; MIC ([12]; replicate 2): 2 µg/mL; MIC ([13]; replicate 1): 1 µg/mL; MIC ([13]; replicate 2): 1 µg/mL; MIC ([14]; replicate 1): 2 µg/mL; MIC ([14]; replicate 2): 2 µg/mL; MIC ([15]; replicate 1): 2 µg/mL; MIC ([15]; replicate 2): 2 µg/mL; MIC ([16]; replicate 1): 2 µg/mL; MIC ([16]; replicate 2): 2 µg/mL; MIC ([17]; replicate 1): 2 µg/mL; MIC ([17]; replicate 2): 2 µg/mL; MIC ([18]; replicate 1): 2 µg/mL; MIC ([18]; replicate 2): 2 µg/mL

Reference: article PMC9022596, “Convergent Evolution of Antibiotic Tolerance in Patients with Persistent Methicillin-Resistant Staphylococcus aureus Bacteremia” (Infection and Immunity, 2022)
